Source: patent publication US20250000896A1, “Xenon Gas for Use in the Treatment of Gliomas” (Universität Heidelberg, priority 2021, published 2025)

How the values were obtained:
Type in all cases: cell-based
[1] = tested on: U87MG glioma cells; assay: Colony formation assay (CFA) with U87MG glioma cells after irradiation; settings: for mean survival fraction in relation to the control group: 50% Xe for 60 min after irradiation and/or 25 μM memantine, colonies counted after 14 days
Text: (§1) In radiobiological research, colony formation assay (CFA) represents an established method to evaluate the in-vitro-effects of radiation treatment (RT) alone or in combination with additional substances on cell survival and reproduction capability. To provide a method for investigation of modulating properties mediated by gaseous agents in combination with ionizing radiation treatment, a system to combine CFA with gas exposure before, during or after radiation treatment was designed. Subsequently CFA were performed with established glioma cell lines U87MG and U251, as well as cervical cancer-derived cell line HeLa investigating the effect of xenon gas exposure on cell survival after radiation treatment. Expression of AMPAR and NMDAR subunits was tested by immunofluorescence staining. In vitro colony formation assay (CFA) comparing surviving fractions of irradiated U87MG cells and U251 cells exposed to 50% Xe and/or treated with 25 μM of memantine to a control group were performed. Additionally, a CFA comparing surviving fractions of irradiated HeLa cells exposed to 50% Xe to a control group was implemented. CFA were carried out in triplets of T25-flasks for each irradiation dose of 0, 2, 4, 6 and 8 Gy in three (U87MG and HeLa) or four (U251) independent repetitions. U87MG and HeLa cells were cultured in Dulbecco's modified eagle's medium (DMEM; U87: Biochrom AG, Berlin, Germany; HeLa: Thermo Fisher Scientific, Waltham, US) and U251 cells were cultured in Gibco Roswell Park Memorial Institute (RPMI) 1640 medium+GlutaMAX™ (Thermo Fisher Scientific, Waltham, US). Cells were stored in an incubator (ambient air with additional 5% CO2) and split regularly before confluence. In preparation of CFA, cells were dissolved, counted, and distributed into T25-flasks starting with 1000 cells (U87MG), 100 cells (U251), or 200 cells (HeLa) per flask for non-irradiated groups increasing the cell count with irradiation dose to 1000, 2000, 5000, and 10.000 cells (U87MG), 200, 600, 2000, and 5000 cells (U251), or 400, 800, 2000, and 4000 cells (HeLa), respectively. Cells were allowed to attach for 14 to 16 h (U87MG), for 4 h (U251), or for 5.5 h (HeLa) and 108 μl of either memantine-hydrochloride 0.25 mg/ml (Sigma-Aldrich Corp., St. Louis, USA) or distilled water as placebo were added 60 min at U87MG and 90 min at U251 and HeLa prior to irradiation, resulting in 25 μM memantine-hydrochloride per flask. For irradiation, 15 flasks (5 triplets, each for 0, 2, 4, 6, 8 Gy) were placed alongside the margin of eight acrylic glass plates (thickness 1.0 cm) with two plates further added on top to balance secondary electrons. Vertical position to the gantry of a conventional linear accelerator (Elekta Synergy, Elekta AB, Stockholm, Sweden) was allocated by wall-mounted lasers marking the center of the flasks' caps membrane, horizontal position was validated by opening the linear accelerator's light field (32.0×32.0 cm) and by positioning the plates centrally inside the field. The triplet from the 0 Gy dose-group was removed immediately after placement (sham-irradiation) and exchanged with dummy T25-flasks filled with water. After delivery of 181.2 MU of 6 MeV photons, equivalent to an effective dose of 2 Gy, the 2 Gy-triplet was removed and replaced by dummy flasks. This process was repeated until a cumulative dose of 8 Gy for the last triplet was reached. Gas exposure was performed after the radiation treatment described above. The flasks were exposed to a preformed gas mixture for 60 minutes containing either 75% Xe, 20% O2 and 5% CO2 for the xenon group or a mixture with the 75% Xe-proportion replaced by nitrogen (N2) for the memantine group and the control group. […] After exposure, the flasks membrane caps were sealed with custom PVC-plugs and stored in a heat cabinet for 24 hours. Finally, the membrane caps' plugs were removed and the flasks were transferred into the 5% CO2-incubator remaining untouched for 13 days (U87MG), 10 days (U251), or 10 days (HeLa). […]

[2] = tested on: U251 glioma cells; assay: Colony formation assay (CFA) with U251 glioma cells after irradiation; settings: 50% Xe for 60 min after irradiation and/or 25 μM memantine, colonies counted after 11 days
Text: as §1

[3] = tested on: HeLa cervical cancer cells; assay: Colony formation assay (CFA) with HeLa cervical cancer cells after irradiation; settings: for mean survival fraction in relation to the control group: 50% Xe for 60 min after irradiation, colonies counted after 11 days
Text: In radiobiological research, colony formation assay (CFA) represents an established method to evaluate the in-vitro-effects of radiation treatment (RT) alone or in combination with additional substances on cell survival and reproduction capability.
To provide a method for investigation of modulating properties mediated by gaseous agents in combination with ionizing radiation treatment, a system to combine CFA with gas exposure before, during or after radiation treatment was designed. Subsequently CFA were performed with established glioma cell lines U87MG and U251, as well as cervical cancer-derived cell line HeLa investigating the effect of xenon gas exposure on cell survival after radiation treatment. Expression of AMPAR and NMDAR subunits was tested by immunofluorescence staining.
In vitro colony formation assay (CFA) comparing surviving fractions of irradiated U87MG cells and U251 cells exposed to 50% Xe and/or treated with 25 μM of memantine to a control group were performed. Additionally, a CFA comparing surviving fractions of irradiated HeLa cells exposed to 50% Xe to a control group was implemented. CFA were carried out in triplets of T25-flasks for each irradiation dose of 0, 2, 4, 6 and 8 Gy in three (U87MG and HeLa) or four (U251) independent repetitions.
U87MG and HeLa cells were cultured in Dulbecco's modified eagle's medium (DMEM; U87: Biochrom AG, Berlin, Germany; HeLa: Thermo Fisher Scientific, Waltham, US) and U251 cells were cultured in Gibco Roswell Park Memorial Institute (RPMI) 1640 medium+GlutaMAX™ (Thermo Fisher Scientific, Waltham, US). Cells were stored in an incubator (ambient air with additional 5% CO2) and split regularly before confluence. In preparation of CFA, cells were dissolved, counted, and distributed into T25-flasks starting with 1000 cells (U87MG), 100 cells (U251), or 200 cells (HeLa) per flask for non-irradiated groups increasing the cell count with irradiation dose to 1000, 2000, 5000, and 10.000 cells (U87MG), 200, 600, 2000, and 5000 cells (U251), or 400, 800, 2000, and 4000 cells (HeLa), respectively. Cells were allowed to attach for 14 to 16 h (U87MG), for 4 h (U251), or for 5.5 h (HeLa) and 108 μl of either memantine-hydrochloride 0.25 mg/ml (Sigma-Aldrich Corp., St. Louis, USA) or distilled water as placebo were added 60 min at U87MG and 90 min at U251 and HeLa prior to irradiation, resulting in 25 μM memantine-hydrochloride per flask.
For irradiation, 15 flasks (5 triplets, each for 0, 2, 4, 6, 8 Gy) were placed alongside the margin of eight acrylic glass plates (thickness 1.0 cm) with two plates further added on top to balance secondary electrons. Vertical position to the gantry of a conventional linear accelerator (Elekta Synergy, Elekta AB, Stockholm, Sweden) was allocated by wall-mounted lasers marking the center of the flasks' caps membrane, horizontal position was validated by opening the linear accelerator's light field (32.0×32.0 cm) and by positioning the plates centrally inside the field. The triplet from the 0 Gy dose-group was removed immediately after placement (sham-irradiation) and exchanged with dummy T25-flasks filled with water. After delivery of 181.2 MU of 6 MeV photons, equivalent to an effective dose of 2 Gy, the 2 Gy-triplet was removed and replaced by dummy flasks. This process was repeated until a cumulative dose of 8 Gy for the last triplet was reached.
Gas exposure was performed after the radiation treatment described above. The flasks were exposed to a preformed gas mixture for 60 minutes containing either 75% Xe, 20% O2 and 5% CO2 for the xenon group or a mixture with the 75% Xe-proportion replaced by nitrogen (N2) for the memantine group and the control group. […] After exposure, the flasks membrane caps were sealed with custom PVC-plugs and stored in a heat cabinet for 24 hours. Finally, the membrane caps' plugs were removed and the flasks were transferred into the 5% CO2-incubator remaining untouched for 13 days (U87MG), 10 days (U251), or 10 days (HeLa). […]

Compound | difference in survival to the groups without added memantine ([1]; 25 μM memantine, 0 to 8 Gy, t-test) | mean survival fraction in relation to the control group ([1]; radiation dose 0 Gy (sham)) [%] | mean survival fraction in relation to the control group ([1]; radiation dose 2 Gy) [%] | mean survival fraction in relation to the control group ([1]; radiation dose 4 Gy) [%] | mean survival fraction in relation to the control group ([1]; radiation dose 6 Gy) [%] | mean survival fraction in relation to the control group ([1]; radiation dose 8 Gy) [%] | mean survival fraction in relation to the control group ([2]; radiation dose 0 Gy (sham)) [%] | mean survival fraction in relation to the control group ([2]; radiation dose 2 Gy) [%] | mean survival fraction in relation to the control group ([2]; radiation dose 4 Gy) [%] | mean survival fraction in relation to the control group ([2]; radiation dose 6 Gy) [%] | mean survival fraction in relation to the control group ([2]; radiation dose 8 Gy) [%] | impact of xenon exposure after irradiation on HeLa cell survival ([3]; 50% Xe after irradiation, except at a very high radiation dose level) | mean survival fraction in relation to the control group ([3]; radiation dose 0 Gy (sham)) [%] | mean survival fraction in relation to the control group ([3]; radiation dose 2 Gy) [%] | mean survival fraction in relation to the control group ([3]; radiation dose 4 Gy) [%] | mean survival fraction in relation to the control group ([3]; radiation dose 6 Gy) [%] | mean survival fraction in relation to the control group ([3]; radiation dose 8 Gy) [%]
CC12CC3CC(C)(C1)CC(N)(C3)C2 [memantine] | no significant differences | 93.8 | 46.8 | 28.5 | 15.9 | 8.0 | 72.3 | 34.1 | 11.9 | 3.8 | 1.0 | – | – | – | – | – | –
[Xe] [xenon] | – | 94.2 | 41.5 | 25.0 | 10.3 | 4.7 | 78.7 | 37.5 | 14.6 | 4.2 | 1.0 | no impact | 114.7 | 71.1 | 23.5 | 7.1 | 2.0
